{"source": "patent US20240165112A1", "about": "“THERAPY FOR THE TREATMENT OF CANCER” (Bristol-Myers Squibb Company, priority 2022, published 2024)", "key": {"[1]": {"system": "Eleven patient-derived tumor organoids", "assay": "3D clonogenic assay, summary over the organoid panel", "assay_type": "cell-based, human", "details": "for median percent colony reduction relative to DMSO: 11 organoid cultures", "procedure": "Five tumor cell lines (4T1.2, A549, EMT6, NCI-H460, and HT29) were treated with a range of paclitaxel or 5-FU concentrations in the presence of dimethlylsulfoxide (DMSO), 5 μM Compound 1, or 20 μM Compound 1. Cells were imaged 4 days after treatment and percent confluence was assessed by image quantification. EC50 values for cell confluence were used to assess chemotherapy potency. Eleven patient-derived tumor organoids (MAXFTN449, MAXFTN2990, PAXF1657, PAXF2131, CXF1256, CXF2129, CXF2061, LXFE2478, LXFE690, LXFA677, LXFA644) were seeded in a 3D matrix and treated with a range of paclitaxel, 5-FU, SN38, Gemcitabine, oxaliplatin, and carboplatin concentrations in the presence of DMSO, 5 μM Compound 1, or 20 μM Compound 1. After 8 to 13 days in culture, colonies were stained, imaged, and counted. A dose response curve was generated for chemotherapy alone or chemotherapy in combination with 5 or 20 μM Compound 1. Combination activity was defined as a percentage of the area under the chemotherapy dose response curve (cAUC) for Compound 1 combination groups compared to the cAUC of chemotherapy alone.\nThe clonogenic assay was carried out in a 96 well plate format using ultra low attachment plates. For each test, plates were prepared as follows: each test well contained a layer of semi-solid medium with tumor cells (50 μL), and a second layer of medium supernatant with or without test compound (100 μL). The cell layer consisted of […] to 12.5×10^3 tumor cells per well, which were seeded in 50 μL/well cell culture medium (IMDM, supplemented with 20% (v/v) fetal bovine serum, 50 μg/mL gentamicin, and 0.4% (w/v) agar). After 24 hours, the soft-agar layer was covered with 90 μL of the same culture medium without agar, and 10 μL of control medium or test compound after serial dilution in DMSO for the duration of the experiment (continuous exposure, 100 μL drug overlay).\nAfter 8 to 13 days in culture, colonies were stained, imaged, and counted."}, "[2]": {"assay": "Plasma concentration of Compound 1 at the 400 mg dose", "assay_type": "in vivo", "details": "400 mg dose in human"}, "[3]": {"system": "COL1A1, PAI-1, TNC, LRRC15 transcripts in A549 lung cancer cells", "assay": "TGF-β-induced transcripts in A549 tumor cells (RT-PCR)", "assay_type": "cell-based, human", "procedure": "Indicated gene transcripts were assessed by RT-PCR relative to GAPDH. Data were normalized to expression after TGF-β-treatment in the presence of only DMSO. Data are presented as mean of 3 biological replicates, and error bars indicate standard deviation. The graphs are representative of at least 2 independent experiments. *P<0.05; ** P<0.01, ***P<0.001; ****P<0.0001 by student's t-test.\nCells were directly lysed in Qiagen™ Buffer RLT Plus with 1% 2-Mercaptoethanol added. Total RNA from tumor samples and cell lines was isolated using Qiagen™ AllPrep® DNA/RNA 96 Kit according to manufacturer's protocol. Isolated RNA was analyzed with NanoDrop™ ONE Spectrophotometer for concentration. The RNA integrity was also analyzed on Agilent TapeStation 4200.\nComplimentary deoxyribonucleic acid (cDNA) was prepared by using Invitrogen™ SuperScript™ III First-Strand Synthesis SuperMix for qRT-PCR. Up to 1 μg of RNA was prepared according to manufacturer's protocol, using Applied Biosystems™ Veriti™ 96-well thermal cycler. The reverse transcription (RT) program used for cDNA synthesis: • 1. 25° C., 10 minutes • 2. 50° C., 30 minutes • 3. 85° C., 5 minutes • 4. Add E. Coli RNase H, 37° C., 20 minutes • 5. Hold at 4° C. Quantitative Reverse Transcription Polymerase Chain Reaction (qRT-PCR).\nThe cDNA was diluted 1:3 fold in nuclease-free water for quantitative polymerase chain reaction (qPCR) setup. Human and mouse TaqMan™ assays for targeted genes were ordered through Applied Biosystems™. TaqMan™ assay selection was based on manufacturer's recommendation. The qRT-PCR was set up using Applied Biosystems™ TaqMan™ Fast Advanced Master Mix according to manufacturer's protocol. The qRT-PCR was run on QuantStudio™ 12 Flex with fast run mode: • 1. 95° C., 20 seconds • 2. 95° C., 1 second • 3. 60° C., 20 seconds • 4. Repeat steps 2-3, 39 times\nThe qPCR data was analyzed, and all cycle threshold (Ct) values were normalized to glyceraldehyde-3-phosphate dehydrogenase (GAPDH) (ΔCt). Analysis was plotted and presented using GraphPad Prism (GraphPad, Version 8.4.1, San Diego, CA).\nThe RNA expression was assessed 24 hours after TGF-β treatment."}, "[4]": {"system": "primary human macrophages", "assay": "Primary macrophage viability (Cell Titer Glo)", "assay_type": "cell-based", "details": "Cell Titer Glo at the end of the experiment; any of the doses tested", "procedure": "FIG. 12 illustrates the effect of Compound 1 on Primary Macrophage Viability. Primary human monocytes were differentiated into macrophages and treated with varying doses of DMSO or Compound 1. Cell viability was assessed by Cell Titer Glo 24 hours after drug treatment. Viability in drug treatment groups was normalized to the equivalent DMSO concentration. Data are plotted as the mean and standard deviation of 3 donors and representative of 2 independent experiments. Abbreviations: DMSO, dimethyl sulfoxide.\nPeripheral blood mononuclear cells (PBMCs) were isolated from human blood using aseptic conditions. CD14+ monocytes were enriched from PBMC using Miltenyi Biotech kit (using CD14 microbeads). Fresh CD14+ monocytes were differentiated to macrophages using complete RPMI1640 medium with M-CSF recombinant human protein at the final concentration of 50 ng/mL. At Day 3-4, media containing M-CSF was added on monocytes/macrophages and incubated for 6-7 days in 5% CO2 incubator at 37° C. 10 mL 10 mM EDTA or Detachin was added to the culture dish containing macrophages, and let sit for 20-30 minutes, or until cells dissociate from the dish at room temperature. Macrophages were collected and washed in a 50 mL conical tube and centrifuged at 300-400×g for 4-5 minutes at room temperature. […]"}, "[5]": {"details": "30 μM Compound 1, 10 ng/mL TGF-β, 24 hours"}}, "data": [{"smiles": "C[C@@H]1CC[C@@H](Nc2nc(NC(C)(C)C)ncc2C(N)=O)C[C@H]1O", "note": "[Compound 1, 2-(tert-butylamino)-4-((1R,3R,4R)-3-hydroxy-4-methylcyclohexylamino)-pyrimidine-5-carboxamide]", "values": [{"measurement": "organoid cultures with an average percent colony reduction greater than 20%", "setting": "[1]; 5 μM Compound 1", "result": "8 out of 11"}, {"measurement": "median percent colony reduction relative to DMSO", "setting": "[1]; 5 μM Compound 1", "result": 39, "unit": "%"}, {"measurement": "organoid cultures with an average percent colony reduction greater than 20%", "setting": "[1]; 20 μM Compound 1", "result": "10 out of 11"}, {"measurement": "median percent colony reduction relative to DMSO", "setting": "[1]; 20 μM Compound 1", "result": 34, "unit": "%"}, {"measurement": "plasma concentration at Cavg", "setting": "[2]", "result": 4, "unit": "µM"}, {"measurement": "Cmax", "setting": "[2]; plasma", "result": 14, "unit": "µM"}, {"measurement": "COL1A1 reduced relative to TGF-β stimulation in the presence of DMSO alone", "setting": "[3]; [5]", "result": 56, "unit": "%"}, {"measurement": "PAI-1 reduced relative to TGF-β stimulation in the presence of DMSO alone", "setting": "[3]; [5]", "result": 64, "unit": "%"}, {"measurement": "TNC reduced relative to TGF-β stimulation in the presence of DMSO alone", "setting": "[3]; [5]", "result": 90, "unit": "%"}, {"measurement": "Tenascin C upregulation with TGF-β treatment", "setting": "[3]; Compound 1 at 30 μM, 15 μM or 5 μM", "result": "inhibited by all doses of Compound 1 tested"}, {"measurement": "Macrophage cell viability relative to DMSO", "setting": "[4]", "result": "No change in cell viability"}]}]}
